Legend:
[1] = biological target: Phosphatidylinositol 4,5-bisphosphate 3-kinase catalytic subunit alpha isoform (Homo sapiens) (UniProt P42336); conditions: Compound concentration 1000.0 nM
[2] = biological target: Serine/threonine-protein kinase Nek7 (Homo sapiens) (UniProt Q8TDX7); conditions: Compound concentration 1000.0 nM
[3] = biological target: cGMP-dependent protein kinase 2 (Homo sapiens) (UniProt Q13237); conditions: Compound concentration 1000.0 nM
[4] = biological target: Cyclin-dependent kinase 2 homolog (Plasmodium falciparum (isolate 3D7)) (UniProt P61075); conditions: Compound concentration 1000.0 nM
[5] = biological target: Serine/threonine-protein kinase tousled-like 1 (Homo sapiens) (UniProt Q9UKI8); conditions: Compound concentration 1000.0 nM
[6] = tested on: Tyrosine-protein kinase ABL1 (Homo sapiens), P00519 [F317L]; conditions: Compound concentration 1000.0 nM
[7] = biological target: Fibroblast growth factor receptor 4 (Homo sapiens) (UniProt P22455); conditions: Compound concentration 1000.0 nM
[8] = tested on: Receptor-type tyrosine-protein kinase FLT3 (Homo sapiens), P36888 [UNDEFINED MUTATION]; conditions: Compound concentration 1000.0 nM
[9] = biological target: Ephrin type-A receptor 3 (Homo sapiens) (UniProt P29320); conditions: Compound concentration 1000.0 nM
[10] = biological target: Aurora kinase A (Homo sapiens) (UniProt O14965); conditions: Compound concentration 1000.0 nM
[11] = biological target: 5'-AMP-activated protein kinase catalytic subunit alpha-1 (Homo sapiens) (UniProt Q13131); conditions: Compound concentration 1000.0 nM
[12] = biological target: Serine/threonine-protein kinase BRSK1 (Homo sapiens) (UniProt Q8TDC3); conditions: Compound concentration 1000.0 nM
[13] = biological target: Protein kinase C delta type (Homo sapiens) (UniProt Q05655); conditions: Compound concentration 1000.0 nM
[14] = tested on: Epidermal growth factor receptor (Homo sapiens), P00533 [G719S]; conditions: Compound concentration 1000.0 nM
[15] = tested on: Phosphatidylinositol 4,5-bisphosphate 3-kinase catalytic subunit alpha isoform (Homo sapiens), P42336 [E545A]; conditions: Compound concentration 1000.0 nM
[16] = biological target: Serine/threonine-protein kinase ULK1 (Homo sapiens) (UniProt O75385); conditions: Compound concentration 1000.0 nM
[17] = biological target: Serine/threonine-protein kinase 38-like (Homo sapiens) (UniProt Q9Y2H1); conditions: Compound concentration 1000.0 nM
[18] = biological target: Mitogen-activated protein kinase kinase kinase 4 (Homo sapiens) (UniProt Q9Y6R4); conditions: Compound concentration 1000.0 nM
[19] = biological target: Cyclin-dependent kinase-like 1 (Homo sapiens) (UniProt Q00532); conditions: Compound concentration 1000.0 nM
[20] = biological target: Alpha-2B adrenergic receptor (Homo sapiens) (UniProt P18089); conditions: Compound concentration 10.0 uM
[21] = biological target: TGF-beta receptor type-2 (Homo sapiens) (UniProt P37173); conditions: Compound concentration 1000.0 nM
Chain of TGF-beta receptor type-2 (Homo sapiens) (P37173 whole entry): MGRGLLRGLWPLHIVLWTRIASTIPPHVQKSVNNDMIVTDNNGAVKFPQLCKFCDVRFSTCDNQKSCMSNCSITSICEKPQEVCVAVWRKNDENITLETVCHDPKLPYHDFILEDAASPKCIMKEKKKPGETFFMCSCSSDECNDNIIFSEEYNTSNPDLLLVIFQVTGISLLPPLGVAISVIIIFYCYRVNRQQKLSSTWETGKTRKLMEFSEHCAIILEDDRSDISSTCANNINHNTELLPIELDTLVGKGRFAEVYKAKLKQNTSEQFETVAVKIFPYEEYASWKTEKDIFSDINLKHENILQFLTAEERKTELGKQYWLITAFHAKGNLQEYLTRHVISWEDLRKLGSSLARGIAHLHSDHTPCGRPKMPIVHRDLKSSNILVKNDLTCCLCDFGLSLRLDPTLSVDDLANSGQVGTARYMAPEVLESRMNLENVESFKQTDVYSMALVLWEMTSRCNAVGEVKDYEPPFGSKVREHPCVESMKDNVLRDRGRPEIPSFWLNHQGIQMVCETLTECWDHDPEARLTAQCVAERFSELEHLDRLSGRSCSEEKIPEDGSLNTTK

[22] = biological target: Receptor tyrosine-protein kinase erbB-2 (Homo sapiens) (UniProt P04626); conditions: Compound concentration 1000.0 nM
[23] = biological target: D(1A) dopamine receptor (Homo sapiens) (UniProt P21728); conditions: Compound concentration 10.0 uM
[24] = biological target: Serine/threonine-protein kinase RIO2 (Homo sapiens) (UniProt Q9BVS4); conditions: Compound concentration 1000.0 nM
[25] = biological target: Tyrosine-protein kinase JAK1 (Homo sapiens) (UniProt P23458); conditions: Compound concentration 1000.0 nM
[26] = biological target: Muscle, skeletal receptor tyrosine-protein kinase (Homo sapiens) (UniProt O15146); conditions: Compound concentration 1000.0 nM
[27] = biological target: Serine/threonine-protein kinase PLK1 (Homo sapiens) (UniProt P53350); conditions: Compound concentration 1000.0 nM
Chain of Serine/threonine-protein kinase PLK1 (Homo sapiens) (P53350 whole entry): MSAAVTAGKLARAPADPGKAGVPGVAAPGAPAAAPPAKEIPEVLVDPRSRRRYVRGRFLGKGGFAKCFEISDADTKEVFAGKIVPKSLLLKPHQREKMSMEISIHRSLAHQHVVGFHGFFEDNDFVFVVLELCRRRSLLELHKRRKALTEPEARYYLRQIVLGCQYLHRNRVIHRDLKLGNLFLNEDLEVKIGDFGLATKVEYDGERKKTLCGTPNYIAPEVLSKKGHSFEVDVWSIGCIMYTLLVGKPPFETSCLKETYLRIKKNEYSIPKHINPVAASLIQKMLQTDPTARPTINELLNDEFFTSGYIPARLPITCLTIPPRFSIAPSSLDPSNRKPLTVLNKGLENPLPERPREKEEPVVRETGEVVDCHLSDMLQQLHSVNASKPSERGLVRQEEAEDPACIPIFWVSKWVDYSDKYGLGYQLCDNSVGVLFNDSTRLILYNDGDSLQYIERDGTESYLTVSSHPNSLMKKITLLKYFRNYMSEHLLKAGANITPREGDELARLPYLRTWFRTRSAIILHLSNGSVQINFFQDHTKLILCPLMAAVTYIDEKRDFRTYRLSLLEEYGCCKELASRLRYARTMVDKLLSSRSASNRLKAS

[28] = biological target: Protein-tyrosine kinase 6 (Homo sapiens) (UniProt Q13882); conditions: Compound concentration 1000.0 nM
[29] = biological target: Wee1-like protein kinase 2 (Homo sapiens) (UniProt P0C1S8); conditions: Compound concentration 1000.0 nM
[30] = tested on: Tyrosine-protein kinase ABL1 (Homo sapiens), P00519 [T315I]; conditions: Compound concentration 1000.0 nM
[31] = biological target: Phosphatidylinositol 4,5-bisphosphate 3-kinase catalytic subunit beta isoform (Homo sapiens) (UniProt P42338); conditions: Compound concentration 1000.0 nM
[32] = biological target: Mitogen-activated protein kinase 4 (Homo sapiens) (UniProt P31152); conditions: Compound concentration 1000.0 nM
Chain of Mitogen-activated protein kinase 4 (Homo sapiens) (P31152 whole entry): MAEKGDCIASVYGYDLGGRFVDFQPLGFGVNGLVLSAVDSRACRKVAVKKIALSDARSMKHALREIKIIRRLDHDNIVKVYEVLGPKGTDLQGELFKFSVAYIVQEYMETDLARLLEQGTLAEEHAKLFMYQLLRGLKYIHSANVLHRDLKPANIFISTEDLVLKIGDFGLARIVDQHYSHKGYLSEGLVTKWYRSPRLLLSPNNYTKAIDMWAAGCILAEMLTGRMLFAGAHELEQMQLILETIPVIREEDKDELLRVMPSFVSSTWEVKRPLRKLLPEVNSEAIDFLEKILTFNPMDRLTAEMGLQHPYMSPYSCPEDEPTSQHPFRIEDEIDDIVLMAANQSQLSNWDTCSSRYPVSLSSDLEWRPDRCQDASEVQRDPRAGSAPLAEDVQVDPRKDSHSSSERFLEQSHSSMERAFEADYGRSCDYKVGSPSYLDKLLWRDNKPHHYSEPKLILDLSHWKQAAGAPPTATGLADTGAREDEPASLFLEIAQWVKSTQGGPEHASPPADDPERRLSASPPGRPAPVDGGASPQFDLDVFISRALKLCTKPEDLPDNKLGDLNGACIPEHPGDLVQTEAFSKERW

[33] = biological target: 5'-AMP-activated protein kinase catalytic subunit alpha-2 (Homo sapiens) (UniProt P54646); conditions: Compound concentration 1000.0 nM
[34] = biological target: 1-phosphatidylinositol 3-phosphate 5-kinase (Homo sapiens) (UniProt Q9Y2I7); conditions: Compound concentration 1000.0 nM
Chain of 1-phosphatidylinositol 3-phosphate 5-kinase (Homo sapiens) (Q9Y2I7 whole entry): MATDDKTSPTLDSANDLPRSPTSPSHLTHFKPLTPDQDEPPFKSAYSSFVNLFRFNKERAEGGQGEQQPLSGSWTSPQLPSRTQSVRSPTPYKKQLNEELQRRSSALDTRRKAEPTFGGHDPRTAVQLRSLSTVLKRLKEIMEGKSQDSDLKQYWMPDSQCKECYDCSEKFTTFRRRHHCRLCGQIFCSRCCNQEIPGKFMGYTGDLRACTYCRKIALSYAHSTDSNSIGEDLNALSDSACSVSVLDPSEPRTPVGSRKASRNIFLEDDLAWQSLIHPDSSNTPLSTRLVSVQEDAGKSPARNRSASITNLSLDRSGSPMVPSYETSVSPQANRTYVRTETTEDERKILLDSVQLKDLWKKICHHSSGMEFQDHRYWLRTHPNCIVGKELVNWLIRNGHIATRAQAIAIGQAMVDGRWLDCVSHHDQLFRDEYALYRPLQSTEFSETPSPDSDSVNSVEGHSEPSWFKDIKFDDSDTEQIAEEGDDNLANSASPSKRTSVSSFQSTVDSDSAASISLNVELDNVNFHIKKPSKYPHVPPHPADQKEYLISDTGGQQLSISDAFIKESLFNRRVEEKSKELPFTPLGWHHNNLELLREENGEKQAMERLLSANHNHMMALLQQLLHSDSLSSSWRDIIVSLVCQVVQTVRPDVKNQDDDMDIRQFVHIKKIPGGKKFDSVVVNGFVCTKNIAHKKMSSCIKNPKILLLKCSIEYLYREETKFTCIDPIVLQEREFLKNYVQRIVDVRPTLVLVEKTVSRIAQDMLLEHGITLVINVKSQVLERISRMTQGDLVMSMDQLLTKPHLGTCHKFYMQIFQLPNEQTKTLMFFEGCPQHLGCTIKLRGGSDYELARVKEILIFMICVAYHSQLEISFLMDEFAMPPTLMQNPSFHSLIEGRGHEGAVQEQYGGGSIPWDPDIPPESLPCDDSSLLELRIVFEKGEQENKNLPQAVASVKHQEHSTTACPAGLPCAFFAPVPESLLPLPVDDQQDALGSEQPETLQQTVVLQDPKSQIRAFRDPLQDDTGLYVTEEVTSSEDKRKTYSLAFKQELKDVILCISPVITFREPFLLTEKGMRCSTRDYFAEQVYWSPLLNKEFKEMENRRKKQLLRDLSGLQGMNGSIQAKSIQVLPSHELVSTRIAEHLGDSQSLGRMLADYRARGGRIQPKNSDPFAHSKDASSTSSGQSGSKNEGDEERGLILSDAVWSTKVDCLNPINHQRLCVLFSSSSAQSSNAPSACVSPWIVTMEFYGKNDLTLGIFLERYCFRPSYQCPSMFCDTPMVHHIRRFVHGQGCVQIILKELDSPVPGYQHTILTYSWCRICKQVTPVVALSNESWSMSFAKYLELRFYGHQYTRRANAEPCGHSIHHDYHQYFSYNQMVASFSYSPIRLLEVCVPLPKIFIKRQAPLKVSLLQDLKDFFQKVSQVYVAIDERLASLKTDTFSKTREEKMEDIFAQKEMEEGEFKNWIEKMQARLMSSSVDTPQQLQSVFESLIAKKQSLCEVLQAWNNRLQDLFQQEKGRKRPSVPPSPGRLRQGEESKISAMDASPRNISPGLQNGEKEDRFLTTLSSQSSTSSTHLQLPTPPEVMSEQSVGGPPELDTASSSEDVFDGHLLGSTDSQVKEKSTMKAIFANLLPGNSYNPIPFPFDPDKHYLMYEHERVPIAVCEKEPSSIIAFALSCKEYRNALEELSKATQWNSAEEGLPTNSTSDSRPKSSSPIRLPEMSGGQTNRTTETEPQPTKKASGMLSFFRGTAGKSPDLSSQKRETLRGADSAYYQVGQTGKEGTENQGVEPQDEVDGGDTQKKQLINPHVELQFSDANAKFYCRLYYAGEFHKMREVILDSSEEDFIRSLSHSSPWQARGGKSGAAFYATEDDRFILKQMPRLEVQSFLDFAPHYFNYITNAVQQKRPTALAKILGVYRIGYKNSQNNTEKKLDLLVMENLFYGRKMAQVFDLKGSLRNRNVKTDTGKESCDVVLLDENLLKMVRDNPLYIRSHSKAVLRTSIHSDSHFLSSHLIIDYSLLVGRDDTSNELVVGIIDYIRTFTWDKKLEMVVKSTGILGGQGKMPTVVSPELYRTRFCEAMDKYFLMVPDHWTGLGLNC

[35] = biological target: Sigma intracellular receptor 2 (Homo sapiens) (UniProt Q5BJF2); conditions: Compound concentration 10.0 uM
[36] = biological target: Serine/threonine-protein kinase Nek10 (Homo sapiens) (UniProt Q6ZWH5); conditions: Compound concentration 1000.0 nM
[37] = tested on: Epidermal growth factor receptor (Homo sapiens), P00533 [UNDEFINED MUTATION]; conditions: Compound concentration 1000.0 nM
[38] = biological target: Receptor-interacting serine/threonine-protein kinase 4 (Homo sapiens) (UniProt P57078); conditions: Compound concentration 1000.0 nM
[39] = biological target: Serine/threonine-protein kinase Nek5 (Homo sapiens) (UniProt Q6P3R8); conditions: Compound concentration 1000.0 nM
[40] = biological target: Interleukin-1 receptor-associated kinase 4 (Homo sapiens) (UniProt Q9NWZ3); conditions: Compound concentration 1000.0 nM
[41] = biological target: Non-receptor tyrosine-protein kinase TNK1 (Homo sapiens) (UniProt Q13470); conditions: Compound concentration 1000.0 nM
[42] = tested on: Epidermal growth factor receptor (Homo sapiens), P00533 [L858R,T790M]; conditions: Compound concentration 1000.0 nM
[43] = biological target: Calcium/calmodulin-dependent protein kinase kinase 1 (Homo sapiens) (UniProt Q8N5S9); conditions: Compound concentration 1000.0 nM
[44] = biological target: Homeodomain-interacting protein kinase 1 (Homo sapiens) (UniProt Q86Z02); conditions: Compound concentration 1000.0 nM
Chain of Homeodomain-interacting protein kinase 1 (Homo sapiens) (Q86Z02 whole entry, looked up): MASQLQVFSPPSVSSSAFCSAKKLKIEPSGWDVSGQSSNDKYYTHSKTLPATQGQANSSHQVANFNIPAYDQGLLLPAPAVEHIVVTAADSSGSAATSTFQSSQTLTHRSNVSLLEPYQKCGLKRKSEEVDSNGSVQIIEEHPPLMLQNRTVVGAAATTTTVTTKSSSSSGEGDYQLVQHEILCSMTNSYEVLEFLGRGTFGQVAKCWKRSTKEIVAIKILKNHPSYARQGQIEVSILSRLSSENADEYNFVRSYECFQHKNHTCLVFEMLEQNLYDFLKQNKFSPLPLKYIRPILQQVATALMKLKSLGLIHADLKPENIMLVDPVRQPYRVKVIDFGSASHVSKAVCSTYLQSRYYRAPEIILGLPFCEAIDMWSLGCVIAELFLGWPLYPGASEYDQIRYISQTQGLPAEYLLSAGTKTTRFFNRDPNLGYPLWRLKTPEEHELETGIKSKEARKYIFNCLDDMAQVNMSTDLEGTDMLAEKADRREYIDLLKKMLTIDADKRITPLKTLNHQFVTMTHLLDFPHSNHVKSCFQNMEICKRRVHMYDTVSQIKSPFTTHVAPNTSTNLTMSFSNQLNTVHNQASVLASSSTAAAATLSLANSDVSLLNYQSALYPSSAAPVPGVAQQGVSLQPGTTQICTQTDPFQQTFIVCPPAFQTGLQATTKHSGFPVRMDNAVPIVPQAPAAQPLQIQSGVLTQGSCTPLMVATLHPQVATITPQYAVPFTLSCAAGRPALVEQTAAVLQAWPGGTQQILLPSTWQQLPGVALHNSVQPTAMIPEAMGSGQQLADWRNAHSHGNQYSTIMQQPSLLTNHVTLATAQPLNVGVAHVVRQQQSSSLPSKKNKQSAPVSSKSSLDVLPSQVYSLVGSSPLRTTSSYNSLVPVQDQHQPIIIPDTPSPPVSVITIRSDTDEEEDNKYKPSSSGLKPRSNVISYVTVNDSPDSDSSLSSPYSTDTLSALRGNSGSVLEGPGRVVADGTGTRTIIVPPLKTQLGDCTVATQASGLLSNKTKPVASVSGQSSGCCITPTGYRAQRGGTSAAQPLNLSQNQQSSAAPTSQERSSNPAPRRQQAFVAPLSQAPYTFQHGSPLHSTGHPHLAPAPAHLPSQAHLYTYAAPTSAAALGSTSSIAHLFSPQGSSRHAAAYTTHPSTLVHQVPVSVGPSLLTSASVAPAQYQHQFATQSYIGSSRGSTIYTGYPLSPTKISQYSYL

Cc1nc(N2CC[C@@H](O)C2)ncc1-c1cc(C(F)(F)F)cc2[nH]ncc12 [TP-004]
inactive: residual activity [1] 100% | residual activity [2] 97% | residual activity [3] 100% | residual activity [4] 61% | residual activity [5] 100% | residual activity [6] 58% | residual activity [7] 90% | residual activity [8] 100% | residual activity [9] 94% | residual activity [10] 87% | residual activity [11] 89% | residual activity [12] 100% | residual activity [13] 94% | residual activity [14] 100% | residual activity [15] 97% | residual activity [16] 76% | residual activity [17] 87% | residual activity [18] 100% | residual activity [19] 77% | inhibition [20] 12.5% | residual activity [21] 99% | residual activity [22] 87% | inhibition [23] 11.1% | residual activity [24] 100% | residual activity [25] 100% | residual activity [26] 85% | residual activity [27] 64% | residual activity [28] 89% | residual activity [29] 100% | residual activity [30] 69% | residual activity [31] 60% | residual activity [32] 90% | residual activity [33] 100% | residual activity [34] 88% | inhibition [35] 45.5% | residual activity [36] 96% | residual activity [37] 100% | residual activity [38] 60% | residual activity [39] 100% | residual activity [40] 94% | residual activity [41] 100% | residual activity [42] 73% | residual activity [43] 100% | residual activity [44] 74%

— ChEMBL document CHEMBL4507303, “Data for DCP probe TP-004” (2021)
